Consider 2 compounds from patent US12083109B2, “Neurokinin antagonists and uses thereof” (California Institute of Technology, priority 2017, dated 2024).

For assay [1], the target named is T1, hM4DREADD in Tac2+ neurons (Homo sapiens, UniProt P08173, A203G/Y113C).
T1 construct: host or cells: Tac2+ neurons of Tac2-Cre mice (dBNSTa, DMH or CeA), transduced in vivo with AAV2-EF1a-DIO-hM4D-mCherry
T1 sequence (P08173 1-479 Y113C/A203G): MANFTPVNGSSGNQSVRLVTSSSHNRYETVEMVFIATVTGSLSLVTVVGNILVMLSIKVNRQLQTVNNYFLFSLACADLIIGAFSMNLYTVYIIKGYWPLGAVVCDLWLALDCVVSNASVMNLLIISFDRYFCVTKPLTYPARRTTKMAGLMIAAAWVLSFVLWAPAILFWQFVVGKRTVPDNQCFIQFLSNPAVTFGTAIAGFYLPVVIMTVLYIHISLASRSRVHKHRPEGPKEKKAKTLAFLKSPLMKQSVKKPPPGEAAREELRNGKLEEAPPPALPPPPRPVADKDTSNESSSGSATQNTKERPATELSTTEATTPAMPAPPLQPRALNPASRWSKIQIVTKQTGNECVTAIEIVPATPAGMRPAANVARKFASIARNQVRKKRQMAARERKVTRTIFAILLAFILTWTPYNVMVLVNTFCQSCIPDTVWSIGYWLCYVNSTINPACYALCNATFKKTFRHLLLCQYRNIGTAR
The assay can be described thus: Shock reactivity, CNO silencing of Tac2+ neurons (hM4DREADD). The settings on record: hM4DREADD in CeA. It is filed as in vivo, mouse. The procedure: The protocol for tone trace fear conditioning was performed as previously described (Cushman et al., 2014; incorporated by reference in its entirety) using fear conditioning boxes previously described in detail (Haubensak et al., 2010; Kunwar et al., 2015; incorporated by reference in their entirety). Briefly, mice were transported in squads of four on a white cart to a novel behavioral testing room containing 4 sound-attenuating fear-conditioning chambers (Med Associates). This “training context” was comprised of flat grid flooring (wired to a shock generator and scrambler for footshock delivery, Med Associates), houselights, and the presence of an internal fan for background noise. Chambers were sprayed with 70% Simple Green solution on the underlying chamber pan to generate a unique contextual scent and chambers were cleaned with 70% EtOH between squads. […] Freezing behavior during the baseline period as well as during each tone presentation (“during”) and trace interval (“post”) were assessed as previously described (Zelikowsky et al., 2014; incorporated by reference in its entirety) using automated near-infrared video tracking equipment and computer software (VideoFreeze, Med Associates). Shock reactivity (motion, arbitrary units) was measured during the 2 second shock US as well as the 3 seconds immediately following. […]

Assay [2] deals with T2, Nk3R (Mus musculus, UniProt P47937).
T2 sequence (P47937 1-452): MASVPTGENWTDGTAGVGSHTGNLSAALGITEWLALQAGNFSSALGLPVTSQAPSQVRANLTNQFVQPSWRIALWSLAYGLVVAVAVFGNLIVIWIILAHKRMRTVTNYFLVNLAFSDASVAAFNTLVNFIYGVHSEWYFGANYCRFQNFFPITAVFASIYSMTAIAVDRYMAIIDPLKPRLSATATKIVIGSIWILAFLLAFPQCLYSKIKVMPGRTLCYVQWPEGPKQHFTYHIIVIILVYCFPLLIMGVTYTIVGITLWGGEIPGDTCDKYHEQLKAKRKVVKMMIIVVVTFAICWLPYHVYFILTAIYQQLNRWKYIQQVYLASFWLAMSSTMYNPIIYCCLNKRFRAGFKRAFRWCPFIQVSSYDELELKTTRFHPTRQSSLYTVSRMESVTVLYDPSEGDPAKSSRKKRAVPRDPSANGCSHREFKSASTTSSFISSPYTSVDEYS
The experiment in a line: SIS mice: overall behavioral effects and return to group housing, osanetant. Details: from tissue; host or cells: Living mice (wild-type C57Bl6/N males, Charles River). The settings on record: for fighting/aggression on return of SIS mice to housing with cagemates: osanetant during or during or following SIS. The class given is in vivo. The text has this:
WT males (Charles River) were housed in isolation (1 animal per cage), or in groups of 3. Tac2-Cre males (bred in-house) were housed in isolation, or in groups of 2-5. Animals were isolated post-weaning, at 8-16 weeks of age. All cage conditions remained otherwise identical for group-housed mice compared to isolated animals, and mice were housed on the same rack in the same vivarium. Except as otherwise indicated, social isolation was maintained for at least 2 weeks (this period was extended in the case of surgical experiments, i.e. when adequate time for recovery and viral expression levels were required). All mice were between 12-20 weeks of age at the time of behavioral testing. We asked whether Tac2 signaling is required during the period of social isolation to observe the changes in behavior. Mice were administered osanetant daily in their home cage during the two-week social isolation period, but were then tested off-drug. To control for carry-over of the drug from the final homecage administration into the testing period (24 hrs later), an additional group of mice was subjected to two weeks of SIS without drug, and given a single home-cage administration of osanetant 24 hours prior to testing (FIG. 3G).

“Also recorded” adds a separate entry of the source.

As to `C[N+]1([O-])CCN(C2=Nc3cc(Cl)ccc3Nc3ccccc32)CC1` [CNO, clozapine-N-oxide], in assay [1], the SIS-enhanced shock reactivity entry was “suppressed; also recorded: attenuated”.

`CC(=O)N(C)C1(c2ccccc2)CCN(CCC[C@]2(c3ccc(Cl)c(Cl)c3)CCCN(C(=O)c3ccccc3)C2)CC1` [osanetant, N-(1-{3-[(3R)-1-benzoyl-3-(3,4-dichlorophenyl)piperidin-3-yl]propyl}-4-phenylpiperidin-4-yl)-N-methylacetamide]: the “behavioral effects of 2 weeks of social isolation stress (overall)” value in assay [2] (mice) is “protects and prevents”. Besides, the entries for the “fighting/aggression on return of SIS mice to housing with cagemates” value in assay [2] and in assay [2] (listed as Osanetant) were “without any subsequent fighting observed” and “prevents aggression”, respectively.
